This passage reports Ki and melting point results from US6506766B1 (Abbott Laboratories, priority 1998, dated 2003).

Where two headings read alike, the source gives them in different places. A value given as a limit tells only on which side of the number the result lay.

The target of data set [1] is T1, human glucocorticoid receptor-α [GRX] isoform (Homo sapiens, UniProt P04150).
T1 construct: host or cells: insect SF21 cells (baculovirus)
T1 sequence (P04150 1-777): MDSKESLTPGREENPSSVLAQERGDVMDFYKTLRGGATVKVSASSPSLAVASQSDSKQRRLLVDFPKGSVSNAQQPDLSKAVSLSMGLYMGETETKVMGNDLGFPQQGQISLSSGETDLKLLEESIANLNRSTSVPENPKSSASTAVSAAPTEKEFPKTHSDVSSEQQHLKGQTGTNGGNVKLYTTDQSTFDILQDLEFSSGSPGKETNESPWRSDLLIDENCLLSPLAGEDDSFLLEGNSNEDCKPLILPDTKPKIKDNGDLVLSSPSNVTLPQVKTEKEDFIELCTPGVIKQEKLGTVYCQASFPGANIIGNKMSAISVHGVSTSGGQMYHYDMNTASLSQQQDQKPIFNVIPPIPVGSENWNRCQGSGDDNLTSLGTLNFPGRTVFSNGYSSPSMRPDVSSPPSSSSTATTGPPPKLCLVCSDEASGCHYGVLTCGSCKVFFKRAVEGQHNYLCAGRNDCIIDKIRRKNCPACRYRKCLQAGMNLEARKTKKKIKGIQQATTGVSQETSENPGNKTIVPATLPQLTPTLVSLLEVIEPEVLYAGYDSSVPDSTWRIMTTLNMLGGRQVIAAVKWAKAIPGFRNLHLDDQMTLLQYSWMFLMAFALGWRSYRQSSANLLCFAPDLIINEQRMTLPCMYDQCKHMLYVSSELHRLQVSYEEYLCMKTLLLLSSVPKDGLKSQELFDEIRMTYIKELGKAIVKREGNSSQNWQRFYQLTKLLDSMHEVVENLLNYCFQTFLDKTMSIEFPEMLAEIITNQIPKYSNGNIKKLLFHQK
In words: Radioligand binding with human glucocorticoid receptor cytosol ([3H]-dexamethasone competition). Conditions: read-out: Ki (nM) GR.

The target in data set [2] is T2, human progesterone receptor-A [PRA] isoform (Homo sapiens, UniProt P06401).
T2 construct: host or cells: insect SF21 cells (baculovirus)
T2 sequence (P06401 1-769 isoform P06401-2): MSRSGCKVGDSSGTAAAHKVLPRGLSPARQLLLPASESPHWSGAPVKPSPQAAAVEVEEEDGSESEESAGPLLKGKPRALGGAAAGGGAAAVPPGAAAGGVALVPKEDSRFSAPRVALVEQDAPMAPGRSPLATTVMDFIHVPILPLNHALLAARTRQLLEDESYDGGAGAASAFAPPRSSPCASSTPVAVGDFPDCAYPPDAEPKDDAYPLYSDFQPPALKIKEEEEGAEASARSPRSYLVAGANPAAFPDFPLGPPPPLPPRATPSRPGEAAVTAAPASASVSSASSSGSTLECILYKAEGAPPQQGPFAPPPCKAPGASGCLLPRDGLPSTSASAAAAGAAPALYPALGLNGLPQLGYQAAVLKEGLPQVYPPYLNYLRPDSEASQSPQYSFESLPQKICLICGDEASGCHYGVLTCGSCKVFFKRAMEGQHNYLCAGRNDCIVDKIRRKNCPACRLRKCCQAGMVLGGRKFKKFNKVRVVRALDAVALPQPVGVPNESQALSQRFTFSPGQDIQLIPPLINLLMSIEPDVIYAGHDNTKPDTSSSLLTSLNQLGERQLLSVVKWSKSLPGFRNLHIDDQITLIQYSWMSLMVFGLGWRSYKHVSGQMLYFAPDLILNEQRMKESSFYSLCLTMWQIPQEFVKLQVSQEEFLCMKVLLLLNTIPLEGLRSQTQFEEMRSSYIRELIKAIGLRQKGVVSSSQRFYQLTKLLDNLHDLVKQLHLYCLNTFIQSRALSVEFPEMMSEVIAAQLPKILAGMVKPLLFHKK
In words: Radioligand binding with human progesterone receptor cytosol ([3H]-progesterone competition). The settings on record: read-out: Ki (nM) PR.
Procedure: Both receptor cDNAs were cloned into baculovirus expression vectors and expressed in insect SF21 cells.
Stock solutions (32 mM) of compounds were prepared in dimethylsulfoxide (DMSO), and 50× solutions of test compounds were prepared from the 32 mM solution with a 50:50 mixture of DMSO/ethanol. The 50× solution was then diluted with binding buffer that contained 10 mM Tri-HCl, 1.5 mM EDTA, 10% glycerol, 1 mM DTT, 20 mM sodium molybdate, pH 7.5 @4° C. 1% DMSO/ethanol was present in the binding assay.
For PR binding assays, [^3H]Prog (˜36,000 dpm (˜0.8 nM)), PRA cytosol (˜40 μg protein), test compounds and binding buffer were mixed in a total volume of 200 μL and incubated at 4° C at overnight in a plate shaker. Specific binding was defined as the difference between binding of [^3H]Prog in the absence and in the presence of 3 μM unlabelled Prog.
After an overnight incubation, 50 μL of hydroxyapatite (25% weight/volume) slurry were added to each well and plates were incubated for 10 min at 0° C. in a plate shaker. Plates were suctioned with a Millipore vacuum manifold and each well was rinsed with 300 μL of ice-cold binding buffer. A 250 μL aliquot of Packard Microscint-20 was added to each well and the wells were shaken at room temperature for 20 minutes. The amount of radioactivity was determined with a Packard TopCount plate reader.
The Ki of test compounds was determined using the Cheng-Prusoff equation Ki=IC50/(1+[L*]/[KL]) where L* is the concentration of radioligand and KL is the dissociation constant of the radioligand determined from saturation analysis.

Where [3] appears, read: GRX cytosol expressed in insect SF21 cells, [3H]-Dex ~0.9 nM, 4° C. overnight, Ki by Cheng-Prusoff, KL ~[…].
Setting [4] is: PRA cytosol expressed in insect SF21 cells, [3H]Prog ~0.8 nM, 4° C. overnight, Ki by Cheng-Prusoff, KL ~4.5 nM.

Take `COc1cccc2c1-c1ccc3c(c1C(CC=C1CCCCC1)O2)C(C)=CC(C)(C)N3` (centres unmarked) [Example 187, 2,5-Dihydro-10-methoxy-5-(2-cyclohexylidenylethyl)-2,2,4-trimethyl-1H-[1]benzopyrano[3,4-f]quinoline]: the melting point (in general, the temperature, or range, at which the solid turns liquid) lay within 130 to 135 °C. For the same compound, in data set [1] (setting [3]), the inhibition constant (Ki) (usually a dissociation constant, usually derived from enzyme kinetics or from competition with a known ligand) came out at 46 nM. Moreover, in data set [2] (setting [4]), the Ki came out at 3900 nM.
Regarding `COc1cccc2c1-c1ccc3c(c1C(CNC(=O)OC(C)(C)C)O2)C(C)=CC(C)(C)N3` (centres unmarked) [Example 206], the melting point lay in the range of 130 to 135 °C. In addition, in data set [1] (setting [3]), the Ki came to 201 nM. Besides, the Ki in data set [2] (setting [4]) was not below 10000 nM.
In turn, `COC(=O)c1cccc2c1-c1ccc3c(c1C(c1ccccc1)O2)C(C)=CC(C)(C)N3` (centres unmarked) [Example 335, Methyl 2,5-Dihydro-5-phenyl-2,2,4-trimethyl-1H-[1]benzopyrano[3,4-f]quinoline-10-carboxylate] had a melting point of 150 to 152 °C. The Ki in data set [1] (setting [3]) stood at 652 nM. Also, the Ki in data set [2] (setting [4]) was not below 10000 nM.
As for `C=Cc1cccc2oc(=O)c3c4c(ccc3c12)NC(C)(C)C=C4C` [Example 339, 2,5-Dihydro-10-ethenyl-5-oxo-2,2,4-trimethyl-1H-[1]benzopyrano[3,4-f]quinoline], the melting point fell in the range of 218 to 224 °C. Also, the inhibition constant (Ki) in data set [1] (setting [3]) is 112 nM. In addition, the Ki in data set [2] (setting [4]) was not below 10000 nM.
The compound `C=Cc1cccc2c1-c1ccc3c(c1C(C1(C)CC=CCC1)O2)C(C)=CC(C)(C)N3` (centres unmarked) [Example 341, 2,5-Dihydro-10-ethenyl-5-[1-methyl-3-cyclohexenyl]-2,2,4-trimethyl-1H-[1]benzopyrano[3,4-f]quinoline] gave a melting point of 198 to 201 °C.
Consider `C=CCC1Oc2ccc(OC(=O)CCCC(=O)N(CC)CC)c(OC)c2-c2ccc3c(c21)C(C)=CC(C)(C)N3` (centres unmarked) [Example 437], for which the Ki in data set [1] (setting [3]) came out at 0.97 nM; in data set [2] (setting [4]) it was 449 nM.
On to `C=CCC1Oc2ccc(OC(=O)CCCC(=O)N(C)C)c(OC)c2-c2ccc3c(c21)C(C)=CC(C)(C)N3` (centres unmarked) [Example 438], for which the Ki in data set [1] (setting [3]) was 0.89 nM; in data set [2] (setting [4]), 129 nM.
With `C=CCC1Oc2ccc(OC(=O)CCCC(=O)N3CCCCC3)c(OC)c2-c2ccc3c(c21)C(C)=CC(C)(C)N3` (centres unmarked) [Example 439], the Ki is 1.2 nM in data set [1] (setting [3]) and 202 nM in data set [2] (setting [4]).
`C=CCC1Oc2ccc(OC(=O)CCCC(=O)N3CCOCC3)c(OC)c2-c2ccc3c(c21)C(C)=CC(C)(C)N3` (centres unmarked) [Example 440]: the values for the Ki in data set [1] (setting [3]) and in data set [2] (setting [4]) were 0.7 nM and 390 nM, respectively.
`COc1c(OC(=O)CCC(=O)N(C)C)ccc2c1-c1ccc3c(c1[C@H]([C@@H]1C=CCC1)O2)C(C)=CC(C)(C)N3` [Example 441, (−)2,5-Dihydro-9-(4-N,N-dimethylamino-4-oxo-butanoyloxy)-10-methoxy-2,2,4-trimethyl-5(S)-(3(S)-1-cyclopenten-3-yl)-1H-[1]benzopyrano[3,4-f]quinoline]: the inhibitory constant (Ki) in data set [1] (setting [3]) was determined as 0.42 nM; in data set [2] (setting [4]) it was 328 nM.
For the compound `C=CCNC(=O)Oc1ccc2c(c1OC)-c1ccc3c(c1C(CC=C)O2)C(C)=CC(C)(C)N3` (centres unmarked) [Example 442, 10-Methoxy-9-(allylaminocarbonyl)oxy-5-(3-propenyl)-2,2,4-trimethyl-1H-2,5-dihydro-[1]benzopyrano[3,4-f]quinoline], the Ki in data set [1] was found to be 9.1 nM; in data set [2], 8860 nM.
For the compound `C=CCC1Oc2ccc(OC(=O)NC3CCCCC3)c(OC)c2-c2ccc3c(c21)C(C)=CC(C)(C)N3` (centres unmarked) [Example 443, 10-Methoxy-9-(cyclohexylaminocarbonyl)-oxy-5-(3-propenyl)-2,2,4-trimethyl-1H-2,5-dihydro-[1]benzopyrano[3,4-f]quinoline], the Ki is 63.5 nM in data set [1] and not below 10000 nM in data set [2].
As for `COc1c(O)ccc2c1-c1ccc3c(c1C(c1ccsc1)O2)C(C)=CC(C)(C)N3` (centres unmarked) [Example 444, 2,5-Dihydro-9-hydroxy-10-methoxy-2,2,4-trimethyl-5-(3-thienyl)-1H-[1]benzopyrano[3,4-f]quinoline], the Ki in data set [1] (setting [3]) is 1.6 nM; in data set [2] (setting [4]), 406 nM.
For the compound `COc1c(O)ccc2c1-c1ccc3c(c1C(Cc1ccc(F)cc1)O2)C(C)=CC(C)(C)N3` (centres unmarked) [Example 445, 2,5-Dihydro-9-hydroxy-10-methoxy-2,2,4-trimethyl-5-(4-(fluorophenyl)methyl)-1H-[1]benzopyrano[3,4-f]quinoline], the values for the Ki in data set [1] (setting [3]) and in data set [2] (setting [4]) were 4 nM and 3470 nM, respectively.
For “(+/−)2,5-Dihydro-9-hydroxy-10-methoxy-2,2,4-trimethyl-5(S)-(3(S)-1-hydroxymethylcyclopenten-3-yl)-1H-[1]benzopyrano[3,4-f]quinoline [Example 270]”, the Ki was determined as 0.66 nM in data set [1] and 4760 nM in data set [2].
On to “O-[3-(2,5-Dihydro-10-methoxy-2,2,4-trimethyl-1H-[1]benzopyrano[3,4-f]quinolin-5-yl)phenyl]ester [Example 102]”, for which the Ki in data set [1] (setting [3]) was 17.7 nM; in data set [2] (setting [4]), not below 10000 nM.
